Assay results published in patent US20090221523A1 (priority 2005, published 2009).
Converted amounts (≈) assume the structure as drawn.

Columns and labels:
[1] = test system: CV strain TK:GFP lacZ (TK−); assay: microbe, parasite or virus in culture; format: cell-based; conditions: Cowpox virus, Vero, read-out: CV TK:GFP lacZ EC50 (TK−)
in vitro = conditions: human
[2] = test system: CV strain delta crmA (TK+); assay: microbe, parasite or virus in culture; format: cell-based; conditions: Cowpox virus, Vero, read-out: CV delta crmA EC50 (TK+)
HSV-1 TK− strain DM2.1 = assay: microbe, parasite or virus in culture; format: cell-based, herpes simplex virus; conditions: Human alphaherpesvirus 1, HFF, read-out: HSV-1 DM2.1 EC50 (TK−)
HSV-1 strain F = assay: microbe, parasite or virus in culture; format: cell-based, herpes simplex virus; conditions: Human alphaherpesvirus 1, HFF, read-out: HSV-1 F EC50 (TK+)
purified VV TK = purified VV TK (Vaccinia virus, UniProt P68564)
[3] = test system: vaccinia virus (Copenhagen Strain); assay: microbe, parasite or virus in culture; format: cell-based; conditions: Orthopoxvirus vaccinia, HFF, read-out: Vaccinia (Copenhagen) EC50
[4] = test system: cowpox virus (Brighton strain); assay: microbe, parasite or virus in culture; format: cell-based; conditions: HFF, read-out: Cowpox (Brighton) EC50

| Structure (SMILES) | EC50 [1] [µg/mL] | CC50 (in vitro) [µg/mL] | EC50 [2] [µg/mL] | EC50 (HSV-1 TK− strain DM2.1) [µg/mL] | EC50 (HSV-1 strain F) [µg/mL] | Vmax (purified VV TK) [µM/min/mg] | EC50 [3] [µg/mL] | EC50 [4] [µg/mL] |
| --- | --- | --- | --- | --- | --- | --- | --- | --- |
| O=c1[nH]c(=O)n([C@H]2C[C@H](O)[C@@H](CO)O2)cc1F [FdU, 5-fluorodeoxyuridine] | 0.37 (≈ 1.5 µM) | 60 ± 0.7 (≈ 244 µM) | 0.37 (≈ 1.5 µM) | 4.5 ± 3.3 (≈ 18.3 µM) | 2.5 ± 1.7 (≈ 10.2 µM) |  |  |  |
| Nc1nc(=O)n([C@@H]2O[C@H](CO)[C@@H](O)[C@@H]2F)cc1I [FIAC, fiacitabine] | 9.2 ± 3.7 (≈ 24.8 µM) | > 100 | 18 ± 0.25 (≈ 48.5 µM) | 8 ± 1.3 (≈ 21.6 µM) | 0.06 ± 0.02 (≈ 0.162 µM) | <0.14 |  |  |
| Nc1ncnc2c1ncn2[C@@H]1O[C@H](CO)[C@@H](O)[C@@H]1O [AraA, vidarabine] | 0.78 ± 0.2 (≈ 2.92 µM) | > 100 | 0.91 ± 0.005 (≈ 3.41 µM) | 4.9 (≈ 18.3 µM) | 6.4 ± 3.4 (≈ 23.9 µM) |  |  |  |
| O=c1[nH]c(=O)n([C@H]2C[C@H](O)[C@@]3(CO)CC23)cc1Br (stereo partly shown) [N-MCBrU] |  | > 100 |  |  |  |  | 0.6 (≈ 1.89 µM) | 11.5 (≈ 36.3 µM) |
| O=c1[nH]c(=O)n([C@H]2C[C@H](O)[C@@H](CO)O2)cc1Br [BrdU, 5-bromodeoxyuridine] | 19 (≈ 61.9 µM) | > 100 | 0.37 (≈ 1.2 µM) | 39 ± 6.3 (≈ 127 µM) | 1.6 ± 0.2 (≈ 5.21 µM) |  |  |  |
| O=c1[nH]c(=O)n([C@@H]2O[C@H](CO)[C@@H](O)[C@@H]2F)cc1I [FIAU, fialuridine] | 19 ± 6.7 (≈ 51.1 µM) | > 100 | 14 ± 7 (≈ 37.6 µM) | 3.9 ± 3.3 (≈ 10.5 µM) | 0.05 ± 0.03 (≈ 0.134 µM) |  |  |  |
| O=c1[nH]c(=O)n([C@H]2C[C@H](O)[C@@H](CO)O2)cc1C(F)(F)F [TFT, trifluridine] | 0.72 ± 0.28 (≈ 2.43 µM) | > 100 | 0.42 ± 0.33 (≈ 1.42 µM) | 1.1 ± 0.3 (≈ 3.71 µM) | 1 ± 0.2 (≈ 3.38 µM) |  |  |  |
